Like-named read-outs stand apart in the source and are kept apart here. Where only a bound is given, the exact number is not on record here.

In one test the test system is P-P70S6K (T389). The test can be described thus: Cell based AlphaLISA assay, inhibition of P-P70S6K (T389) (mTORC1 substrate phosphorylation) in MDA-MB-468 cells. To be noted: Homo sapiens, 4 h, AlphaLISA, two to four hours at 37° C., read-out: pIC50 for Inhibition of mTORC1 and mTORC2 Substrate Phosphorylation, P-P70S6K-(T389) (converted). The method in brief: (§1)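 After treatment, cells were lysed in the kit's buffer once assay medium was withdrawn. Duplicate Alpha measurements tracked each phospho-epitope, and dose-response data were fitted to IC50 following normalization to control wells.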
(Bead proximity is the source of the signal in Alpha formats.)

The next test deals with P-4E-BP1 (T37/46). The test can be described thus: Cell based AlphaLISA assay, inhibition of P-4E-BP1 (T37/46) (mTORC1 substrate phosphorylation) in MDA-MB-468 cells. To be noted: Homo sapiens, AlphaLISA, two to four hours at 37° C., read-out: pIC50 for Inhibition of mTORC1 and mTORC2 Substrate Phosphorylation, P-4E-BP1-(T37/46) (converted). The method in brief:
as §1

Another test relates to P-Akt (S473). The test can be described thus: Cell based AlphaLISA assay, inhibition of P-Akt (S473) (mTORC2 substrate phosphorylation) in MDA-MB-468 cells. To be noted: Homo sapiens, AlphaLISA, two to four hours at 37° C., read-out: pIC50 for Inhibition of mTORC1 and mTORC2 Substrate Phosphorylation, p-AKT 1/2/3 -(S473) (converted). The method in brief:
as §1

For the compound `CO[C@H]1C[C@@H]2CC[C@@H](C)[C@@](O)(O2)C(=O)C(=O)N2CCCC[C@H]2C(=O)O[C@H]([C@H](C)C[C@@H]2CC[C@H](n3nncc3-c3cccc(-c4cn(CCOCCOCCOCCOCCOCCOCCOCCOCCC(=O)NCCCCn5nc(-c6ccc7oc(N)nc7c6)c6c(N)ncnc65)nn4)c3)[C@H](OC)C2)CC(=O)[C@H](C)/C=C(\C)[C@@H](O)[C@@H](OC)C(=O)[C@H](C)C[C@H](C)/C=C/C=C/C=C/1C` [Example 62], the IC50 in the test with P-P70S6K (T389) was greater than 1000 nM; with P-4E-BP1 (T37/46) (MDA-MB-468, 4 h), greater than 1000 nM; in the test on P-Akt (S473) (MDA-MB-468, 4 h), greater than 1000 nM.
With `CO[C@H]1C[C@@H]2CC[C@@H](C)[C@@](O)(O2)C(=O)C(=O)N2CCCC[C@H]2C(=O)O[C@H]([C@H](C)C[C@@H]2CC[C@@H](O)[C@H](OC)C2)C/C(=N/OCc2cn(CCOCCOCCOCCOCCOCCOCCOCCOCCC(=O)NCCCCn3nc(-c4ccc5oc(N)nc5c4)c4c(N)ncnc43)nn2)[C@H](C)/C=C(\C)[C@@H](O)[C@@H](OC)C(=O)[C@H](C)C[C@H](C)/C=C/C=C/C=C/1C` [Example 63], the IC50 with P-P70S6K (T389) is 10 to 1000 nM; in the test on P-4E-BP1 (T37/46) (MDA-MB-468, 4 h) it was 31.6 to 1000 nM; in the test with P-Akt (S473) (MDA-MB-468, 4 h), 31.6 to 1000 nM.
As to `CCO[C@@H]1C[C@@H]([C@H](C)C[C@@H]2CC[C@@H](O)[C@H](OC)C2)OC(=O)[C@@H]2CCCCN2C(=O)C(=O)[C@]2(O)O[C@@H](CC[C@H]2C)C[C@H](OC)/C(C)=C/C=C/C=C/[C@@H](C)C[C@@H](C)C(=NOCc2cn(CCOCCOCCOCCOCCOCCOCCOCCOCCC(=O)NCCCCn3nc(-c4ccc5oc(N)nc5c4)c4c(N)ncnc43)nn2)[C@H](OC)[C@H](O)/C(C)=C/[C@H]1C` [Example 64], the IC50 in the test on P-P70S6K (T389) was less than 1 nM; in the test on P-4E-BP1 (T37/46) (MDA-MB-468, 4 h) it was 3.16 to 31.6 nM; in the test on P-Akt (S473) (MDA-MB-468, 4 h), 31.6 to 1000 nM.
Take `CCO[C@@H]1C[C@@H]([C@H](C)C[C@@H]2CC[C@@H](O)[C@H](OC)C2)OC(=O)[C@@H]2CCCCN2C(=O)C(=O)[C@]2(O)O[C@@H](CC[C@H]2C)C[C@H](OC)/C(C)=C/C=C/C=C/[C@@H](C)C[C@@H](C)C(=NOCc2cn(CCOCCOCCOCCOCCOCCOCCC(=O)NCCCCn3nc(-c4ccc5oc(N)nc5c4)c4c(N)ncnc43)nn2)[C@H](OC)[C@H](O)/C(C)=C/[C@H]1C` [Example 65]: the IC50 in the test with P-P70S6K (T389) is 1 to 10 nM; in the test on P-4E-BP1 (T37/46) (MDA-MB-468, 4 h) it was 3.16 to 31.6 nM; with P-Akt (S473) (MDA-MB-468, 4 h), 31.6 to 1000 nM.
Take `COc1ccc(-c2ccc3ncc4c(c3c2)n(-c2ccc(N3CCN(c5ncc(CNC(=O)CCOCCOCCOCCOCCOCCOCCn6cc(CCCCO[C@@H]7CC[C@@H](C[C@@H](C)[C@@H]8CC(=O)[C@H](C)/C=C(\C)[C@@H](O)[C@@H](OC)C(=O)[C@H](C)C[C@H](C)/C=C/C=C/C=C(\C)[C@@H](OC)C[C@@H]9CC[C@@H](C)[C@@](O)(O9)C(=O)C(=O)N9CCCC[C@H]9C(=O)O8)C[C@H]7OC)nn6)cn5)CC3)c(C(F)(F)F)c2)c(=O)n4C)cn1` [Example 66]: the IC50 was less than 1 nM in the test on P-P70S6K (T389); less than 3.16 nM in the test with P-4E-BP1 (T37/46) (MDA-MB-468, 4 h); less than 3.16 nM in the test with P-Akt (S473) (MDA-MB-468, 4 h).
As for `CO[C@H]1C[C@@H]2CC[C@@H](C)[C@@](O)(O2)C(=O)C(=O)N2CCCC[C@H]2C(=O)O[C@H]([C@H](C)C[C@@H]2CC[C@@H](OCCCCc3cn(CCOCCOCCOCCOCCOCCOCCC(=O)N4CCN(c5ccc(-n6c(=O)ccc7cnc8ccc(-c9cnc%10ccccc%10c9)cc8c76)cc5C(F)(F)F)CC4)nn3)[C@H](OC)C2)CC(=O)[C@H](C)/C=C(\C)[C@@H](O)[C@@H](OC)C(=O)[C@H](C)C[C@H](C)/C=C/C=C/C=C/1C` [Example 67], the IC50 in the test on P-P70S6K (T389) was less than 1 nM; in the test with P-4E-BP1 (T37/46) (MDA-MB-468, 4 h), less than 3.16 nM; in the test on P-Akt (S473) (MDA-MB-468, 4 h), less than 3.16 nM.
On to `CO[C@H]1C[C@@H]2CC[C@@H](C)[C@@](O)(O2)C(=O)C(=O)N2CCCC[C@H]2C(=O)O[C@H]([C@H](C)C[C@@H]2CC[C@@H](OCCCCc3cn(CCOCCOCCOCCOCCOCCOCCC(=O)NCCCCn4nc(-c5cnc6[nH]ccc6c5)c5c(N)ncnc54)nn3)[C@H](OC)C2)CC(=O)[C@H](C)/C=C(\C)[C@@H](O)[C@@H](OC)C(=O)[C@H](C)C[C@H](C)/C=C/C=C/C=C/1C` [Example 68], for which the results for the IC50 with P-P70S6K (T389), in the test on P-4E-BP1 (T37/46) (4 h) and with P-Akt (S473) (4 h) were less than 1 nM, 3.16 to 31.6 nM and 31.6 to 1000 nM, respectively.
For the compound `CO[C@H]1C[C@@H]2CC[C@@H](C)[C@@](O)(O2)C(=O)C(=O)N2CCCC[C@H]2C(=O)O[C@H]([C@H](C)C[C@@H]2CC[C@@H](OCCCCc3cn(CCOCCOCCOCCOCCOCCOCCOCCOCCC(=O)NCCCCn4nc(-c5cnc6[nH]ccc6c5)c5c(N)ncnc54)nn3)[C@H](OC)C2)CC(=O)[C@H](C)/C=C(\C)[C@@H](O)[C@@H](OC)C(=O)[C@H](C)C[C@H](C)/C=C/C=C/C=C/1C` [Example 69], the IC50 with P-P70S6K (T389) is less than 1 nM; with P-4E-BP1 (T37/46) (4 h) it was less than 3.16 nM; with P-Akt (S473) (4 h) it was 3.16 to 31.6 nM.
Consider `CO[C@H]1C[C@@H]2CC[C@@H](C)[C@@](O)(O2)C(=O)C(=O)N2CCCC[C@H]2C(=O)O[C@H]([C@H](C)C[C@@H]2CC[C@@H](OCCCCc3cn(CCOCCOCCOCCOCCOCCOCCC(=O)NCCCCn4nc(-c5cnc6[nH]ccc6c5)c5c(N)ncnc54)nn3)[C@H](OC)C2)C[C@@H](OC)[C@H](C)/C=C(\C)[C@@H](O)[C@@H](OC)C(=O)[C@H](C)C[C@H](C)/C=C/C=C/C=C/1C` [Example 70], for which the IC50 with P-P70S6K (T389) was 1 to 10 nM; in the test with P-4E-BP1 (T37/46) (MDA-MB-468, 4 h), greater than 1000 nM; in the test on P-Akt (S473) (MDA-MB-468, 4 h), greater than 1000 nM.
Take `COC(=O)N[C@H]1C[C@@H]2CC[C@@H](C)[C@@](O)(O2)C(=O)C(=O)N2CCCC[C@H]2C(=O)O[C@H]([C@H](C)C[C@@H]2CC[C@@H](OCCCCc3cn(CCOCCOCCOCCOCCOCCOCCOCCOCCC(=O)NCCCCn4nc(-c5cc6cc(O)ccc6[nH]5)c5c(N)ncnc54)nn3)[C@H](OC)C2)CC(=O)[C@H](C)/C=C(\C)[C@@H](O)[C@@H](OC)C(=O)[C@H](C)C[C@H](C)/C=C/C=C/C=C/1C` [Example 71]: the IC50 with P-P70S6K (T389) is 1 to 10 nM; in the test with P-4E-BP1 (T37/46) (MDA-MB-468, 4 h) it was 3.16 to 31.6 nM; in the test on P-Akt (S473) (MDA-MB-468, 4 h), greater than 1000 nM.
Consider `COC(=O)N[C@H]1C[C@@H]2CC[C@@H](C)[C@@](O)(O2)C(=O)C(=O)N2CCCC[C@H]2C(=O)O[C@H]([C@H](C)C[C@@H]2CC[C@@H](OCCCCc3cn(CCOCCOCCOCCOCCOCCOCCOCCOCCC(=O)N4CCN(c5ccc(-n6c(=O)n(C)c7cnc8ccc(-c9ccc(OC)nc9)cc8c76)cc5C(F)(F)F)CC4)nn3)[C@H](OC)C2)CC(=O)[C@H](C)/C=C(\C)[C@@H](O)[C@@H](OC)C(=O)[C@H](C)CC(C)/C=C/C=C/C=C/1C` (stereo partly drawn) [Example 72], for which the IC50 with P-P70S6K (T389) is less than 1 nM; in the test with P-4E-BP1 (T37/46) (MDA-MB-468, 4 h), less than 3.16 nM; in the test on P-Akt (S473) (MDA-MB-468, 4 h), less than 3.16 nM.
For the compound `COC(=O)N[C@H]1C[C@@H]2CC[C@@H](C)[C@@](O)(O2)C(=O)C(=O)N2CCCC[C@H]2C(=O)O[C@H]([C@H](C)C[C@@H]2CC[C@@H](OCCCCc3cn(CCOCCOCCOCCOCCOCCOCCC(=O)N4CCN(c5ccc(-n6c(=O)n(C)c7cnc8ccc(-c9ccc(OC)nc9)cc8c76)cc5C(F)(F)F)CC4)nn3)[C@H](OC)C2)CC(=O)[C@H](C)/C=C(\C)[C@@H](O)[C@@H](OC)C(=O)[C@H](C)C[C@H](C)/C=C/C=C/C=C/1C` [Example 73], the IC50 with P-P70S6K (T389) was less than 1 nM; in the test with P-4E-BP1 (T37/46) (MDA-MB-468, 4 h), less than 3.16 nM; with P-Akt (S473) (MDA-MB-468, 4 h), less than 3.16 nM.

Values taken from patent US20230093861A1, “RAPAMYCIN ANALOGS AS MTOR INHIBITORS” (Revolution Medicines, Inc., priority 2017, published 2023).
